Test results taken from PubChem BioAssay (NCI).
Several values for one entry are separate records, joined by “and”; a condition that tells them apart may be missing. Identical values can stand only once.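 These data come from cells grown in 96-well plates and exposed to compound for 48 hours at five concentrations. Here, GI50 denotes the concentration required for 50% inhibition of growth. TGI: total growth inhibition.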

Experiments:
Test in all cases: NCI anticancer screen, dose series, 48 h
A549 NSCLC = system: A549 NSCLC
BT-549 breast = system: BT-549 breast
KM12 colon = system: KM12 colon
MDA-MB-231 breast = system: MDA-MB-231 breast
NCI-H522 lung = system: NCI-H522 lung
NCI/ADR-RES ovarian = system: NCI/ADR-RES ovarian
OVCAR-8 ovarian = system: OVCAR-8 ovarian
PC-3 prostate = system: PC-3 prostate
RPMI-8226 leukemia = system: RPMI-8226 leukemia
SN12C renal = system: SN12C renal
TK-10 renal = system: TK-10 renal
U251 CNS = system: U251 CNS
UACC-62 melanoma = system: UACC-62 melanoma

Row | SMILES | TGI (A549 NSCLC) [µM] | TGI (BT-549 breast) [µM] | TGI (KM12 colon) [µM] | TGI (MDA-MB-231 breast) [µM] | TGI (NCI-H522 lung) [µM] | TGI (NCI/ADR-RES ovarian) [µM] | TGI (OVCAR-8 ovarian) [µM] | TGI (PC-3 prostate) [µM] | TGI (RPMI-8226 leukemia) | TGI (SN12C renal) [µM] | TGI (TK-10 renal) [µM] | TGI (U251 CNS) [µM] | TGI (UACC-62 melanoma) | GI50 (NCI-H522 lung) [µM] | GI50 (NCI/ADR-RES ovarian) [µM] | GI50 (OVCAR-8 ovarian) [µM] | GI50 (PC-3 prostate) [µM] | GI50 (SN12C renal) [µM] | GI50 (U251 CNS) [µM] | GI50 (UACC-62 melanoma) [µM]
1 | Nc1n[nH]c2ccccc12 | > 100 | > 100 | > 100 | > 100 | > 100 | > 100 | > 100 | > 100 | > 100 µM | > 100 | > 100 | > 100 | > 100 µM | – | – | – | – | – | – | –
2 | Cc1cccc(NC(Nc2cccc(C)c2)=C(C(Cl)=C(Cl)Cl)[N+](=O)[O-])c1 | > 68 | 26.3 | 49.5 | 17 | 21 | 35.4 | 27.6 | > 92.9 | > 100 µM | 24 | 28.5 | 36.3 | 40.6 µM | – | – | – | – | – | – | –
3 | COC(=O)[C@H]1C=C[C@H](OC2OC(COC(C)=O)C(OC(C)=O)C(OC(C)=O)C2OC(C)=O)n2c(=O)n(-c3ccccc3)c(=O)n21 (stereo partly specified) | 35.4 | 9.14 | 25.1 | 24.5 | 0.504 | 61.8 | 26.4 | 22.6 | 5.04 µM | 19.9 | 15.4 | 27.9 | 3.01 µM | – | – | – | – | – | – | –
4 | COC(=O)/C=C\S/C(=C(/c1ccccc1)n1ccc(C(=O)OC)n1)c1ccccc1 | > 100 | > 100 | > 100 | 70.9 | 48 | > 100 | > 100 | 49.7 | > 100 µM | > 100 | > 100 | 38.2 | 10.3 µM | – | – | – | – | – | – | –
5 | COCC(=O)OC1CCn2c1nc1c2C(=O)C(C)=C(NC(C)=O)C1=O (stereo unspecified) | 47.8 | 24.4 | 30.5 | 4.71 | 14.3 | 22.3 | 12 | 7.68 | 4.76 µM and 9.5 µM | 18.9 | 34.5 | 17.4 | 4.16 µM and 7.52 µM | 5.52 | 6.89 | 2.92 | 3.56 | 4.62 | 4.36 | 2.08
6 | C[C@@H]1C(=O)CC2(O)[C@@]13C[C@@H](OC(=O)[C@@H]3O)[C@@H](C)[C@@]21COC1=O (stereo partly specified) | > 100 | > 100 | > 100 | > 100 | > 100 | > 100 | > 100 | > 100 | > 100 µM | > 100 | > 100 | > 100 | > 100 µM | – | – | – | – | – | – | –
7 | COc1cc2c3c(n(C)c(=O)c2cc1OC)-c1cc2c(cc1/C3=C/CCCCBr)OCO2 | > 100 | > 100 | > 100 | > 100 | > 100 | > 100 | > 100 | > 100 | 64.5 µM | > 100 | > 100 | > 100 | > 100 µM | – | – | – | – | > 100 | – | > 100
8 | CC(C)(C)OC(=O)c1ccc(NCc2cc(O)ccc2O)cc1 | > 89.4 | 6.9 | 12.2 | 9.31 | 0.557 | 12.5 | > 55.2 | 3.75 | 13 µM | 5.28 | 6.07 | 9.32 | 15.9 µM | – | – | – | – | – | – | –
9 | C=C1CC=CC(C)(C)C1C/C=C(\C)C(O)CBr (stereo unspecified) | > 100 | > 100 | > 100 | > 100 | 23.2 | 63.2 | > 100 | > 100 | 66.8 µM | > 100 | > 100 | > 100 | > 100 µM | – | – | – | – | – | – | –
10 | COc1cc(/C=C/c2cc(=O)cc(/C=C/c3ccc(O)c(OC)c3)o2)ccc1O | > 100 | > 100 | > 100 | > 100 | > 100 | > 100 | > 100 | > 100 | > 20.7 µM | > 100 | > 100 | > 100 | > 100 µM | – | – | – | – | – | – | –
11 | CCN(C(=O)N[C@H](C(=O)N[C@@H](C)C(=O)OC)C(C)C)c1ccccc1 | > 100 | > 100 | > 100 | > 100 | 49.5 | > 100 | 63.2 | > 100 | > 100 µM | > 100 | 98.6 | 86.6 | 55.7 µM | – | – | – | – | – | – | –
12 | Brc1ccc2c(c1)-c1nc3c(cc1CC2)CCc1ccc(Br)cc1-3 | > 100 | > 100 | > 100 | > 100 | > 100 | > 100 | > 100 | > 100 | > 100 µM | > 100 | > 100 | > 100 | – | – | – | – | – | – | – | –
13 | O=c1oc2ccccc2c2nc3ccccc3cc12 | > 100 | > 100 | > 100 | > 100 | > 100 | > 100 | > 100 | > 100 | > 100 µM | > 100 | > 100 | 87.9 | > 100 µM | – | – | – | – | – | – | –
14 | COC1OC2COC(C)(C)OC2C2OC(C)(C)OC12 (stereo unspecified) | > 100 | > 100 | > 100 | > 100 | > 100 | > 100 | > 100 | > 100 | 93.6 µM | 67.1 | > 100 | > 100 | > 100 µM | – | – | – | – | – | – | –
15 | CC(C)Cc1c(C#N)c(C#N)c(N)n1Cc1ccccc1 | > 100 | > 100 | > 100 | > 100 | > 100 | > 100 | > 100 | > 100 | > 100 µM | > 100 | > 100 | > 100 | > 100 µM | – | – | – | – | – | – | –
16 | CC/C=C\C/C=C\C/C=C\CCCCCCCC(=O)OC(COC(=O)CCCCCCCCCCCCCCCCC)COC1OC(CO)C(O)C(O)C1O (stereo unspecified) | > 25 | > 25 | > 25 | > 25 | > 25 | > 25 | > 25 | > 25 | > 25 µM | > 25 | > 25 | > 25 | > 25 µM | – | – | – | – | – | – | –
